{"source": "patent US20160022751A1", "about": "“NOVEL COMPOSITION FOR TREATING ALZHEIMER'S DISEASE AND IMPROVING COGNITIVE FUNCTION OF ALZHEIMER'S PATIENTS” (GANGNEUNG-WONJU NATIONAL UNIVERSITY INDUSTRY ACADEMY …, priority 2014, published 2016)", "system": "Aβ42", "assay": "Morris water maze test in Aβ42-infused animals", "type": "in vivo", "conditions": "Aβ42 rats administered Rg3 (FIG. 25)", "protocol": "Male BALB/c mice (10 weeks old) were purchased from Samtaco (Korea), and were adapted to laboratory conditions (temperature: 20±2° C., relative humidity: 50%, light/dark cycle: 12 h) for 1 week. Five-week-old male Sprague-Dawley rats were obtained from Daehan-Biolink (Korea) for learning and memory testing. The animals (n=5/group) were maintained at a constant temperature (23±2° C.), relative humidity, 55±10%, and 12-h light/dark cycle. The animals were fed a standard rodent chow and purified water ad libitum. Lyophilized Aβ42 (0.5 mg, Bachem Torrance, USA) was resuspended in PBS (pH 7.4) by shaking for 7 days at room temperature to prepare the fibrillar-aggregated Aβ42 (fAβ42). At 10 weeks of age, mice were anesthetized, and 1 μl fAβ42 (350 μM stock concentration) was stereotaxically injected unilaterally into the parietal cortex (anterior 1.7 mm, lateral 1 mm, and ventral 1 mm to the bregma above the hippocampus within 1 min) (Mohajeri et al., J. Biol. Chem., 277: 35460-35465, 2002)\nThe present inventor performed learning and memory tests using rats in order to investigate whether Rg3 can ameliorate symptoms of Alzheimer's model animals in deed. […] The latency time of stay in the light room from lights-on was recorded following an electric shock (1 mA for 2 s) in the dark compartment. […] The mean time spent to escape onto the platform was recorded."}
{"compound": "CC(C)=CCC[C@](C)(O)[C@H]1CC[C@]2(C)[C@@H]1[C@H](O)C[C@@H]1[C@@]3(C)CC[C@H](O[C@@H]4O[C@H](CO)[C@@H](O)[C@H](O)[C@H]4O[C@@H]4O[C@H](CO)[C@@H](O)[C@H](O)[C@H]4O)C(C)(C)[C@@H]3CC[C@]12C", "note": "[ginsenoside Rg3]", "values": [{"measurement": "learning and memory functions, Morris water-maze", "value": "maintained learning and memory functions at 4-5 weeks"}]}
